{"source": "patent US8247211B2", "about": "“Glycopeptide antibiotics” (American Cyanamid Company, priority 2001, dated 2012)", "assay_in_all_cases": "In vitro antibacterial evaluation: minimum inhibitory concentration (MIC), broth dilution method", "type_in_all_cases": "cell-based", "key": {"Enterococcus sp.": {"system": "Enterococcus sp.", "details": "18 hours at 35° C.", "how_it_was_run": "(§1)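 First, organisms are seeded at 5×10^5 CFU/mL into Muller-Hinton II […]. Next, antibiotic is applied across 64-0.06 μg/mL by broth dilution (NCCLS M7-A2). Finally, the lowest inhibitory concentration is recorded as MIC.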"}, "Escherichia coli": {"system": "Escherichia coli", "details": "18 hours at 35° C.", "how_it_was_run": "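NCCLS M7-A2 broth dilution; Muller-Hinton II […]; 5×10^5 CFU/mL; 64-0.06 μg/mL. MIC = lowest concentration with no growth.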"}, "Staphylococcus sp.": {"system": "Staphylococcus sp.", "how_it_was_run": "as §1"}, "Streptococcus sp.": {"system": "Streptococcus sp.", "details": "18 hours at 35° C.", "how_it_was_run": "as §1"}, "[1]": {"details": "broth dilution, inoculum 5×10^5 CFU/mL"}, "[2]": {"details": "Streptococcus agalactiae (GC 4564)"}, "[3]": {"details": "Streptococcus pneumoniae (ATCC 6301)"}, "[4]": {"details": "Streptococcus pneumoniae (GC 1894)"}, "[5]": {"details": "Streptococcus pneumoniae (GC 4565)"}, "[6]": {"details": "Streptococcus pyogenes (GC 4563)"}}}
{"molecule": "CC(c1ccccc1)C1NC(=O)CNC(=O)C(CO)NC(=O)C(C(O)C2CN(c3ncccn3)C(=N)N2C2OC(CO)C(O)C(O)C2O)NC(=O)C(C(O)C2CNC(=Nc3ncccn3)N2)NC(=O)C(Cc2ccc(OC3OC(CO)C(OC4OC5COC6(OC5C(O)C4O)C4CC5CC(C4)CC6C5)C(O)C3O)cc2)NC1=O", "note": "(stereo not drawn) [Example 228, Di-N-(2-(pyrimidinyl)-cyclo[glycyl-β-methylphenylalanyl-O-[4-O-[4,6-O-(2-adamantylidene)hexopyranosyl]hexopyranosyl]tyrosyl-3-[2-iminoimidazolidin-4-yl]seryl-3-β-hexopyranosyl-2-iminoimidazolidin-4-yl]serylseryl]]", "values": [{"measurement": "MIC Enterococcus avium (GC 4558)", "setting": "Enterococcus sp.; Enterococcus avium (GC 4558)", "result": 8, "unit": "µg/mL"}, {"measurement": "MIC Enterococcus faecalis (ATCC 29212)", "setting": "Enterococcus sp.; Enterococcus faecalis (ATCC 29212)", "result": 32, "unit": "µg/mL"}, {"measurement": "MIC Enterococcus faecalis (GC 2242)", "setting": "Enterococcus sp.; Enterococcus faecalis (GC 2242)", "result": 32, "unit": "µg/mL"}, {"measurement": "MIC Enterococcus faecalis (GC 2691)", "setting": "Enterococcus sp.; Enterococcus faecalis (GC 2691)", "result": 32, "unit": "µg/mL"}, {"measurement": "MIC Enterococcus faecalis (GC 3059)", "setting": "Enterococcus sp.; Enterococcus faecalis (GC 3059)", "result": 32, "unit": "µg/mL"}, {"measurement": "MIC Enterococcus faecalis (GC 4552)", "setting": "Enterococcus sp.; Enterococcus faecalis (GC 4552)", "result": 32, "unit": "µg/mL"}, {"measurement": "MIC Enterococcus faecalis (GC 4553)", "setting": "Enterococcus sp.; Enterococcus faecalis (GC 4553)", "result": 16, "unit": "µg/mL"}, {"measurement": "MIC Enterococcus faecalis (GC 4554)", "setting": "Enterococcus sp.; Enterococcus faecalis (GC 4554)", "result": 32, "unit": "µg/mL"}, {"measurement": "MIC Enterococcus faecalis (GC 6189)", "setting": "Enterococcus sp.; Enterococcus faecalis (GC 6189)", "result": 32, "unit": "µg/mL"}, {"measurement": "MIC Enterococcus faecium (GC 2243)", "setting": "Enterococcus sp.; Enterococcus faecium (GC 2243)", "result": 16, "unit": "µg/mL"}, {"measurement": "MIC Enterococcus faecium (GC 4556)", "setting": "Enterococcus sp.; Enterococcus faecium (GC 4556)", "result": 32, "unit": "µg/mL"}, {"measurement": "MIC Enterococcus faecium (GC 4557)", "setting": "Enterococcus sp.; Enterococcus faecium (GC 4557)", "result": 16, "unit": "µg/mL"}, {"measurement": "MIC Enterococcus avium (GC 4558)", "setting": "Enterococcus sp.; [1]", "result": 8, "unit": "µg/mL"}, {"measurement": "MIC Enterococcus faecalis (ATCC 29212)", "setting": "Enterococcus sp.; [1]", "result": 32, "unit": "µg/mL"}, {"measurement": "MIC Enterococcus faecalis (GC 2242)", "setting": "Enterococcus sp.; [1]", "result": 32, "unit": "µg/mL"}, {"measurement": "MIC Enterococcus faecalis (GC 2691)", "setting": "Enterococcus sp.; [1]", "result": 32, "unit": "µg/mL"}, {"measurement": "MIC Enterococcus faecalis (GC 3059)", "setting": "Enterococcus sp.; [1]", "result": 32, "unit": "µg/mL"}, {"measurement": "MIC Enterococcus faecalis (GC 4552)", "setting": "Enterococcus sp.; [1]", "result": 32, "unit": "µg/mL"}, {"measurement": "MIC Enterococcus faecalis (GC 4553)", "setting": "Enterococcus sp.; [1]", "result": 16, "unit": "µg/mL"}, {"measurement": "MIC Enterococcus faecalis (GC 4554)", "setting": "Enterococcus sp.; [1]", "result": 32, "unit": "µg/mL"}, {"measurement": "MIC Enterococcus faecalis (GC 6189)", "setting": "Enterococcus sp.; [1]", "result": 32, "unit": "µg/mL"}, {"measurement": "MIC Enterococcus faecium (GC 2243)", "setting": "Enterococcus sp.; [1]", "result": 16, "unit": "µg/mL"}, {"measurement": "MIC Enterococcus faecium (GC 4556)", "setting": "Enterococcus sp.; [1]", "result": 32, "unit": "µg/mL"}, {"measurement": "MIC Enterococcus faecium (GC 4557)", "setting": "Enterococcus sp.; [1]", "result": 16, "unit": "µg/mL"}, {"measurement": "MIC Escherichia coli (ATCC 25922)", "setting": "Escherichia coli; Escherichia coli (ATCC 25922)", "result": ">64", "unit": "µg/mL"}, {"measurement": "MIC Escherichia coli (GC 4559)", "setting": "Escherichia coli; Escherichia coli (GC 4559)", "result": ">64", "unit": "µg/mL"}, {"measurement": "MIC Escherichia coli (GC 4560)", "setting": "Escherichia coli", "result": 16, "unit": "µg/mL"}, {"measurement": "MIC Staphylococcus aureus (ATCC 29213)", "setting": "Staphylococcus sp.; strain ATCC 29213", "result": 32, "unit": "µg/mL"}, {"measurement": "MIC Staphylococcus aureus (GC 1131)", "setting": "Staphylococcus sp.; strain GC 1131", "result": 32, "unit": "µg/mL"}, {"measurement": "MIC Staphylococcus aureus (GC 3051)", "setting": "Staphylococcus sp.; strain GC 3051", "result": 32, "unit": "µg/mL"}, {"measurement": "MIC Staphylococcus aureus (GC 3053)", "setting": "Staphylococcus sp.; strain GC 3053", "result": 32, "unit": "µg/mL"}, {"measurement": "MIC Staphylococcus aureus (GC 4541)", "setting": "Staphylococcus sp.; strain GC 4541", "result": 32, "unit": "µg/mL"}, {"measurement": "MIC Staphylococcus aureus (GC 4542)", "setting": "Staphylococcus sp.; strain GC 4542", "result": 32, "unit": "µg/mL"}, {"measurement": "MIC Staphylococcus aureus-SMITH (GC 4543)", "setting": "Staphylococcus sp.; strain GC 4543", "result": 32, "unit": "µg/mL"}, {"measurement": "MIC Staphylococcus aureus (GC 4544)", "setting": "Staphylococcus sp.; strain GC 4544", "result": 32, "unit": "µg/mL"}, {"measurement": "MIC Staphylococcus aureus (GC 4545)", "setting": "Staphylococcus sp.; strain GC 4545", "result": 32, "unit": "µg/mL"}, {"measurement": "MIC Staphylococcus haemolyticus (GC 4546)", "setting": "Staphylococcus sp.; strain GC 4546", "result": 16, "unit": "µg/mL"}, {"measurement": "MIC Coagulase Negative Staphylococcus (GC 4547)", "setting": "Staphylococcus sp.; strain GC 4547", "result": 16, "unit": "µg/mL"}, {"measurement": "MIC Coagulase Negative Staphylococcus (GC 4548)", "setting": "Staphylococcus sp.; strain GC 4548", "result": 16, "unit": "µg/mL"}, {"measurement": "MIC Coagulase Negative Staphylococcus (GC 4549)", "setting": "Staphylococcus sp.; strain GC 4549", "result": 16, "unit": "µg/mL"}, {"measurement": "MIC Coagulase Negative Staphylococcus (GC 4551)", "setting": "Staphylococcus sp.; strain GC 4551", "result": 16, "unit": "µg/mL"}, {"measurement": "MIC Streptococcus agalactiae (GC 4564)", "setting": "Streptococcus sp.; [2]", "result": 16, "unit": "µg/mL"}, {"measurement": "MIC Streptococcus pneumoniae (ATCC 6301)", "setting": "Streptococcus sp.; [3]", "result": 8, "unit": "µg/mL"}, {"measurement": "MIC Streptococcus pneumoniae (GC 1894)", "setting": "Streptococcus sp.; [4]", "result": 8, "unit": "µg/mL"}, {"measurement": "MIC Streptococcus pneumoniae (GC 4565)", "setting": "Streptococcus sp.; [5]", "result": 8, "unit": "µg/mL"}, {"measurement": "MIC Streptococcus pyogenes (GC 4563)", "setting": "Streptococcus sp.; [6]", "result": 8, "unit": "µg/mL"}, {"measurement": "MIC Streptococcus agalactiae (GC 4564)", "setting": "Streptococcus sp.; [1]", "result": 16, "unit": "µg/mL"}, {"measurement": "MIC Streptococcus pneumoniae (ATCC 6301)", "setting": "Streptococcus sp.; [1]", "result": 8, "unit": "µg/mL"}, {"measurement": "MIC Streptococcus pneumoniae (GC 1894)", "setting": "Streptococcus sp.; [1]", "result": 8, "unit": "µg/mL"}, {"measurement": "MIC Streptococcus pneumoniae (GC 4565)", "setting": "Streptococcus sp.; [1]", "result": 8, "unit": "µg/mL"}, {"measurement": "MIC Streptococcus pyogenes (GC 4563)", "setting": "Streptococcus sp.; [1]", "result": 8, "unit": "µg/mL"}]}
{"molecule": "COc1ccc2cc(COC3C(OC4C(CO)OC(Oc5ccc(CC6NC(=O)C(C(C)c7ccccc7)NC(=O)CNC(=O)C(CO)NC(=O)C(C(O)C7CNC(=N)N7C7OC(CO)C(O)C(O)C7O)NC(=O)C(C(O)C7CNC(=N)N7)NC6=O)cc5)C(O)C4O)OC(CO)C(O)C3O)ccc2c1", "note": "(stereo not drawn) [Example 230c, Cyclo[glycyl-β-methylphenylalanyl-O-[4-O-[2-O-[(6-methoxy-2-naphthyl)methyl]hexopyranosyl]hexopyranosyl]tyrosyl-3-(2-iminoimidazolidin-4-yl)seryl-3-(3-hexopyranosyl-2-iminoimidazolidin-4-yl)serylseryl]]", "values": [{"measurement": "MIC Enterococcus faecium (GC 4557)", "setting": "Enterococcus sp.; Enterococcus faecium (GC 4557)", "result": 32, "unit": "µg/mL"}, {"measurement": "MIC Enterococcus faecium (GC 4557)", "setting": "Enterococcus sp.; [1]", "result": 32, "unit": "µg/mL"}, {"measurement": "MIC Escherichia coli (GC 4560)", "setting": "Escherichia coli", "result": 32, "unit": "µg/mL"}, {"measurement": "MIC Coagulase Negative Staphylococcus (GC 4547)", "setting": "Staphylococcus sp.; Coagulase Negative Staphylococcus (GC 4547), 18 hours at 35° C.", "result": 64, "unit": "µg/mL"}, {"measurement": "MIC Coagulase Negative Staphylococcus (GC 4548)", "setting": "Staphylococcus sp.; Coagulase Negative Staphylococcus (GC 4548), 18 hours at 35° C.", "result": 64, "unit": "µg/mL"}, {"measurement": "MIC Coagulase Negative Staphylococcus (GC 4549)", "setting": "Staphylococcus sp.; Coagulase Negative Staphylococcus (GC 4549), 18 hours at 35° C.", "result": 64, "unit": "µg/mL"}, {"measurement": "MIC Coagulase Negative Staphylococcus (GC 4551)", "setting": "Staphylococcus sp.; Coagulase Negative Staphylococcus (GC 4551), 18 hours at 35° C.", "result": 64, "unit": "µg/mL"}, {"measurement": "MIC Coagulase Negative Staphylococcus (GC 6257)", "setting": "Staphylococcus sp.; Coagulase Negative Staphylococcus (GC 6257), 18 hours at 35° C.", "result": 32, "unit": "µg/mL"}, {"measurement": "MIC Staphylococcus aureus (GC 4541)", "setting": "Staphylococcus sp.; Staphylococcus aureus (GC 4541), 18 hours at 35° C.", "result": 64, "unit": "µg/mL"}, {"measurement": "MIC Staphylococcus aureus-SMITH (GC 4543)", "setting": "Staphylococcus sp.; Staphylococcus aureus-SMITH (GC 4543), 18 hours at 35° C.", "result": 64, "unit": "µg/mL"}, {"measurement": "MIC Staphylococcus haemolyticus (GC 4546)", "setting": "Staphylococcus sp.; Staphylococcus haemolyticus (GC 4546), 18 hours at 35° C.", "result": 64, "unit": "µg/mL"}, {"measurement": "MIC Streptococcus agalactiae (GC 4564)", "setting": "Streptococcus sp.; [2]", "result": 32, "unit": "µg/mL"}, {"measurement": "MIC Streptococcus pneumoniae (ATCC 6301)", "setting": "Streptococcus sp.; [3]", "result": 32, "unit": "µg/mL"}, {"measurement": "MIC Streptococcus pneumoniae (GC 1894)", "setting": "Streptococcus sp.; [4]", "result": 16, "unit": "µg/mL"}, {"measurement": "MIC Streptococcus pneumoniae (GC 4565)", "setting": "Streptococcus sp.; [5]", "result": 32, "unit": "µg/mL"}, {"measurement": "MIC Streptococcus pyogenes (GC 4563)", "setting": "Streptococcus sp.; [6]", "result": 64, "unit": "µg/mL"}, {"measurement": "MIC Streptococcus agalactiae (GC 4564)", "setting": "Streptococcus sp.; [1]", "result": 32, "unit": "µg/mL"}, {"measurement": "MIC Streptococcus pneumoniae (ATCC 6301)", "setting": "Streptococcus sp.; [1]", "result": 32, "unit": "µg/mL"}, {"measurement": "MIC Streptococcus pneumoniae (GC 1894)", "setting": "Streptococcus sp.; [1]", "result": 16, "unit": "µg/mL"}, {"measurement": "MIC Streptococcus pneumoniae (GC 4565)", "setting": "Streptococcus sp.; [1]", "result": 32, "unit": "µg/mL"}, {"measurement": "MIC Streptococcus pyogenes (GC 4563)", "setting": "Streptococcus sp.; [1]", "result": 64, "unit": "µg/mL"}]}
